Experiment [1] deals with 7402 (human hepatocellular carcinoma cells). In words: MTT cytotoxicity assay. It counts as cell-based. Conditions: 7402 cells, 48 h incubation, mean ± SD of at least three repeats. On the procedure: (§1) Five types of cells, namely A549 (human non-small cell lung cancer cells), T24 (human bladder cancer cells), 4T1 (mouse breast cancer cells), 7402 (human hepatocellular carcinoma cells), and THLE-3 (human hepatocytes cells), are selected for evaluating the cytotoxicity of viba 11, cycloviolacin O2, and vija 10 using the MTT (3-(4,5-dimethylthiazol-2-yl)-2,5-diphenyltetrazolium bromide) reagent.
(§2) To determine cell toxicity using MTT assay, cells are seeded in a 96-well plate and cultured for 24 h. After that, different concentrations of cyclotides are added to the cells and incubated for 48 h. MTT is then added to react with the cells, and after 4 h, the reaction is terminated by discarding the supernatant and adding dimethyl sulfoxide for resuspension. The absorbance at 570 nm is measured after 10 min of shaking at room temperature. Each test was performed three times at least. The data were analyzed using GraphPad Prism 8. During this process, the drug concentrations were transformed into logarithmic form with a base of 10 and plotted on the x-axis. Cell viability (%) = [A (cyclotides) − A (blank)]/[A (control) − A (blank)] × 100, which was represented on the y-axis. Using this method, we determined the IC50 value for each experiment, with each experiment repeated at least three times and the mean value calculated. The error was represented by the standard deviation of the IC50 obtained from three repetitions.

The subject of experiment [2] is 4T1 (mouse breast cancer cells). In words: MTT cytotoxicity assay. The format is cell-based. The note with it: 4T1 cells, 48 h incubation, mean ± SD of at least three repeats. On the procedure:
as §1, §2

The subject of experiment [3] is THLE-3 (human hepatocytes cells). In words: MTT cytotoxicity assay. The format is cell-based. The note with it: THLE-3 cells, 48 h incubation, mean ± SD of at least three repeats. On the procedure:
as §1, §2

In experiment [4] the test system is A549 (human non-small cell lung cancer cells). As to the kind of experiment: MTT cytotoxicity assay. The format is cell-based. The note with it: 48 h incubation, mean ± SD of at least three repeats. On the procedure:
as §1, §2

Experiment [5] relates to T24 (human bladder cancer cells). As to the kind of experiment: MTT cytotoxicity assay. Conditions: 48 h incubation, mean ± SD of at least three repeats. The format is cell-based. On the procedure: as §1, §2
The subject of experiment [6] is Acinetobacter baumannii (ATCC19606). As to the kind of experiment: microbe, parasite or virus in culture. Conditions: Acinetobacter baumannii ATCC19606; 10^6 CFU/ml, 96-well plate, overnight 37 °C, visual clarity; performed at least three times. An excerpt: (§3) Viba 11, originally discovered in Viola baoshanensis[39] and found in other plants such as Viola tricolor[40], Viola betonicifolia, and Viola philippica, lacks biological activity studies. […] All purified cyclotides underwent antibacterial testing against Gram-positive bacterium Staphylococcus aureus (CMCC(B)26003-2-10) and Bacillus subtilis (CMCC(B)63501), Gram-negative bacteria, including Acinetobacter baumannii (ATCC19606), Escherichia coli (CMCC(B)44102-2-6), and Salmonella paratyphi (CMCC(B)50094-2-9).
(§4) Bacterial fluids are cultured overnight at 37 °C. The next day, the bacterial liquids are diluted to a concentration of 10^6 CFU/ml. Prepare different concentrations of cyclotide drugs and kanamycin sulfate in advance, and sequentially add the drugs and bacterial liquid to the 96-well plate. Negative controls consisted of sterile water and bacterial liquid. The plate is cultured overnight at 37 °C and observe whether the solution remains clear to see the growth of the bacterial suspension. Each test was performed three times at least.

The subject of experiment [7] is Bacillus subtilis (CMCC(B)63501). In words: microbe, parasite or virus in culture. Conditions: 10^6 CFU/ml, 96-well plate, overnight 37 °C, visual clarity, performed at least three times.
Text: as §3, §4

In experiment [8] the test system is Escherichia coli (CMCC(B)44102-2-6). In words: microbe, parasite or virus in culture. The note with it: 10^6 CFU/ml, 96-well plate, overnight 37 °C, visual clarity, performed at least three times.
Text: as §3, §4

One compound from PMC11056381, “Characterization and evaluation of cytotoxic and antimicrobial activities of cyclotides from Viola japonica” (Scientific Reports, 2024) can be followed below.

≈ marks a conversion by molar mass, not a printed value. Residues, ends and D or L forms follow the SMILES beside them.

In the case of `CC[C@H](C)[C@@H]1NC(=O)[C@@H]2CSSC[C@@H]3NC(=O)[C@H](C(C)C)NC(=O)[C@H](CCCCN)NC(=O)[C@H](CO)NC(=O)[C@H](CO)NC(=O)[C@@H]4CSSC[C@H](NC(=O)[C@H](CO)NC(=O)[C@H](CCC(=O)O)NC(=O)CNC(=O)[C@H](CSSC[C@H](NC(=O)CNC(=O)[C@H](CC(C)C)NC(=O)[C@H](CC(C)C)NC(=O)[C@H](C)NC(=O)[C@H](CO)NC1=O)C(=O)N[C@@H](CO)C(=O)N4)NC(=O)[C@@H]1CCCN1C(=O)[C@H]([C@@H](C)CC)NC(=O)[C@H](CO)NC(=O)CNC(=O)[C@H](CC(N)=O)NC(=O)[C@H](CCCCN)NC(=O)[C@H](Cc1ccc(O)cc1)NC3=O)C(=O)N[C@@H](C(C)C)C(=O)N[C@@H](Cc1ccccc1)C(=O)N[C@@H]([C@@H](C)CC)C(=O)N1CCC[C@H]1C(=O)N2` [vija 10] (HELM PEPTIDE1{A.L.L.G.C.S.C.S.S.K.V.C.Y.K.N.G.S.I.P.C.G.E.S.C.V.F.I.P.C.I.S}$PEPTIDE1,PEPTIDE1,5:R3-20:R3|PEPTIDE1,PEPTIDE1,7:R3-24:R3|PEPTIDE1,PEPTIDE1,12:R3-29:R3|PEPTIDE1,PEPTIDE1,1:R1-31:R2$$$V2.0), the half-maximal inhibitory concentration (IC50) in experiment [1] is 2180 ± 60 nM; in experiment [2] it was 244 ± 20 nM; in experiment [3], 2090 ± 60 nM; in experiment [4], 733 ± 200 nM; in experiment [5], 3280 ± 150 nM. For the same compound, the MIC in experiment [6] is 57 µM (≈ 179 µg/mL); in experiment [7], 14.3 µM (≈ 45 µg/mL); in experiment [8], above 28.5 µM.
